Results on one compound are retold here after patent US10774122B2, “ERG targeted therapy” (The Regents of the University of Michigan, priority 2017, dated 2020).

pKd: −log10 of the molar value. Where a SMILES comes first, the peptide text is derived from it. [ ]: non-standard residue; d: D form.

For orientation: pKd means the Kd on a negative log10 scale, so that one unit is a factor of ten.

Series [1] concerns the target T1, ERG (Homo sapiens, UniProt P11308).
T1 sequence (P11308 1-479): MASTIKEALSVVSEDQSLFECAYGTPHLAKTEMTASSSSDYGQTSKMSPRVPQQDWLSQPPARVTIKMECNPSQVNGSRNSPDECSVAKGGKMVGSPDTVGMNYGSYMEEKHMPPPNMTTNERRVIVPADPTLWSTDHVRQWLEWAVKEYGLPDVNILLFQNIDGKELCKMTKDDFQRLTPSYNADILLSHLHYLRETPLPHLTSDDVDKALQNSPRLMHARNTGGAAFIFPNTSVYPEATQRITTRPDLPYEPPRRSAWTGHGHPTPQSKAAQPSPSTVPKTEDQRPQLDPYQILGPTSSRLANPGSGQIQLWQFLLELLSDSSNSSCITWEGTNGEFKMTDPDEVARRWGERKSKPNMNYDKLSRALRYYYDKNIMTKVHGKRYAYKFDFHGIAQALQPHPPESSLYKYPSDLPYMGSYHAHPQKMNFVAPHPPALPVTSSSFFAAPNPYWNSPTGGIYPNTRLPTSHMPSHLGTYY
Nature of the series: ERG:peptide binding by biolayer interferometry (OctetRED). (Biolayer interferometry detects binding as a change in optical thickness at a sensor tip.)
Description: The interaction coefficients between ERG and synthetic peptides or peptidomimetics were determined by biolayer interferometry technology using the Octet Red system (ForteBio). Purified ERG and GUS proteins were biotinylated by EZLink NHS-PEG4 Biotinylation Kit (Thermo Scientific) following the manufacturer's protocol and any unincorporated biotin was removed from the reactions with Zeba 2 ml desalt columns (Thermo). Biotinylated proteins (500 μg/ml) were then incubated with super streptavidin biosensors in binding buffer (20 mM HEPES pH 7.4, 150 mM NaCl), blocked with 10 μg/ml biocytin and washed three times in binding buffer. Peptides were serially diluted in binding buffer, mixed with the protein-coupled biosensors and peptidomimetic:protein association/dissociation was monitored for 10 min at 25° C. Nonspecific binding from the signal obtained from peptidomimetic:GUS interactions was subtracted from that of peptidomimetic:ERG interactions and baseline signal drift was controlled by monitoring immobilized ERG without peptide. Octet Red analysis software was used to analyze the data.

Series [2] relates to ERG and DNA-PKcs enrichment at ERG-regulated genomic loci. In kind it is cell-based. The procedure: VCaP cells were grown in complete medium and treated with peptidomimetics 12 hours prior to harvesting cells. ChIP assays were carried out as previously described (Brenner et al., 2011; supra; Yu et al., 2010; supra) using antibodies against ERG (Santa Cruz, # sc-354), DNA-PKcs (BD Biosciences, #610805), rabbit IgG (Santa Cruz, # sc-2027) or mouse IgG (Santa Cruz, # sc-2025). Briefly, chromatin collected from formaldehyde crosslinked and lysed cells was sonicated to an average length of 600 bp. Supernatants containing chromatin fragments were pre-cleared using protein A/G beads (Upstate) and incubated with 3-5 μg of ERG antibody or IgG overnight prior to the addition of […] of protein A/G beads for 1 hour. Antibody-bead precipitates were then washed six times and antibody/protein/DNA complexes were eluted with 150 μl IP elution buffer (50 mM […], 1% SDS). To reverse the crosslinks, the complexes were incubated in elution buffer containing 10 μg RNase A and 0.3 M NaCl at 67° C. for 4-5 hours. DNA/protein complexes were then precipitated with ethanol, air-dried, and dissolved in 100 μl of TE. Protein was then digested by incubation with proteinase K at 45° C. for 1 hour and DNA was purified using a QIAGEN PCR column according to the manufacturer's protocol. QPCR was performed using appropriate primers as previously described (Brenner et al., 2011; supra).

In series [3] the target is T1, ERG.
Description: This technique was applied to evaluate the target binding specificity of RI-EIPs. […] All CETSAs were performed after 3 hours treatment with the peptidomimetics at the indicated doses and temperatures.
A further series deals with CD31^+ vessels. Also on record: species or system mice. Conditions: mouse, in vivo. From the text: (M) The quantitative data of IHC staining.

The compound `CC(C)C[C@@H](NC(=O)[C@H]1CCCN1C(=O)[C@H]1CCCN1C(=O)[C@@H](Cc1ccc(O)cc1)NC(=O)[C@@H](CC(C)C)NC(=O)[C@@H](Cc1ccccc1)NC(=O)[C@H](NC(=O)CNC(=O)CNC(=O)[C@@H](CCCNC(=N)N)NC(=O)[C@@H](CCCCN)NC(=O)[C@@H](CCCCN)NC(=O)[C@@H](CCCNC(=N)N)NC(=O)[C@@H](CCCNC(=N)N)NC(=O)[C@@H](CCC(N)=O)NC(=O)[C@@H](CCCNC(=N)N)NC(=O)[C@@H](CCCNC(=N)N)NC(=O)[C@@H](CCCNC(=N)N)NC(=O)CN)[C@H](C)O)C(=O)O` [RI-EIP1] (H-G[dR][dR][dR][dQ][dR][dR][dK][dK][dR]GG[dT][dF][dL][dY][dP][dP][dL]-OH) showed a pKd at ERG [1] of 6.03. Moreover, in series [2], the “ERG and DNA-PKcs enrichment at ERG-regulated genomic loci” value is reported as “inhibits”. The “soluble ERG protein in VCaP versus HUVEC cells (CETSA)” value at ERG [3] is on record as “clear difference”. Further, in the series with CD31^+ vessels, the “angiogenesis by number of CD31^+ vessels in FFPE sections” value is recorded as “did not alter angiogenesis”.
